The supplement of paper PMC5908809

Experiments:
[1] = system: normal NK cells expanded with K562-aAPC; assay: drug sensitivity score (DSS) (DSS units); higher = more sensitive; extreme values may be limits of the assay; details: 72 h; IL-2 2.5 ng/mL
Description: (§1)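 Drug sensitivity and resistance testing on K562-aAPC-expanded normal NK cells: 5 concentrations (10-fold steps over a 10,000-fold range), 72 h at 37 °C, viability by CellTiter-Glo normalised to DMSO and benzethonium chloride controls; DSS from the fitted curve.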

IMC-1 (IL-2 20 ng/mL) [2] = assay: percent inhibition of viability; higher = more inhibition; details: 72 h
NK-92 (IL-2 2.5 ng/mL) [3] = assay: as above; details: 72 h
[4] = system: normal primary NK cells, pool 3 (3 donors) (IL-2 2.5 ng/mL); assay: as above; details: 72 h
YT (IL-2 2.5 ng/mL) [5] = assay: as above; details: 72 h
NKL (IL-2 2.5 ng/mL) [6] = assay: as above; details: 72 h
[7] = system: normal primary NK cells, pool 2 (3 donors) (IL-2 2.5 ng/mL); assay: as above; details: 72 h
KHYG-1 (IL-2 2.5 ng/mL) [8] = assay: as above; details: 72 h
KAI3 (IL-2 2.5 ng/mL) [9] = assay: as above; details: 72 h
[10] = system: normal primary NK cells, pool 1 (3 donors), resting (IL-2 0 ng/mL); assay: as above; details: 72 h
NK-YS (IL-2 2.5 ng/mL) [11] = assay: as above; details: 72 h
[12] = system: normal primary NK cells, pool 1 (3 donors) (IL-2 2.5 ng/mL); assay: as above; details: 72 h
SNK-6 (IL-2 2.5 ng/mL) [13] = assay: as above; details: 72 h
DERL-7 (IL-2 2.5 ng/mL) [14] = assay: as above; details: 72 h
[15] = system: normal NK cells expanded with K562-aAPC; assay: as above; details: 72 h, IL-2 2.5 ng/mL
Description: as §1

IMC-1 (IL-2 20 ng/mL) [16] = assay: drug sensitivity score (DSS) (DSS units); higher = more sensitive; extreme values may be limits of the assay; details: 72 h
NK-92 (IL-2 2.5 ng/mL) [17] = assay: as above; details: 72 h
[18] = system: normal primary NK cells, pool 3 (3 donors) (IL-2 2.5 ng/mL); assay: as above; details: 72 h
YT (IL-2 2.5 ng/mL) [19] = assay: as above; details: 72 h
NKL (IL-2 2.5 ng/mL) [20] = assay: as above; details: 72 h
[21] = system: normal primary NK cells, pool 2 (3 donors) (IL-2 2.5 ng/mL); assay: as above; details: 72 h
KHYG-1 (IL-2 2.5 ng/mL) [22] = assay: as above; details: 72 h
KAI3 (IL-2 2.5 ng/mL) [23] = assay: as above; details: 72 h
[24] = system: normal primary NK cells, pool 1 (3 donors), resting (IL-2 0 ng/mL); assay: as above; details: 72 h
NK-YS (IL-2 2.5 ng/mL) [25] = assay: as above; details: 72 h
[26] = system: normal primary NK cells, pool 1 (3 donors) (IL-2 2.5 ng/mL); assay: as above; details: 72 h
SNK-6 (IL-2 2.5 ng/mL) [27] = assay: as above; details: 72 h
DERL-7 (IL-2 2.5 ng/mL) [28] = assay: as above; details: 72 h

CC(C)(C)c1nc(-c2cccc(NS(=O)(=O)c3c(F)cccc3F)c2F)c(-c2ccnc(N)n2)s1 [Dabrafenib] (max concentration tested 2500 nM)
Details | drug sensitivity score
DERL-7 (IL-2 2.5 ng/mL) [28] | 1.38
IMC-1 (IL-2 20 ng/mL) [16] | 0
KAI3 (IL-2 2.5 ng/mL) [23] | 1.13
KHYG-1 (IL-2 2.5 ng/mL) [22] | 13.4
NK-92 (IL-2 2.5 ng/mL) [17] | 0.89
NK-YS (IL-2 2.5 ng/mL) [25] | 0
NKL (IL-2 2.5 ng/mL) [20] | 0.89
SNK-6 (IL-2 2.5 ng/mL) [27] | 0
YT (IL-2 2.5 ng/mL) [19] | 0.64
[1] | 0
[18] | 0.89
[21] | 0.89
[24] | 3.85
[26] | 0

percent inhibition of viability [%]
Details | 0.25 nM | 2.5 nM | 25 nM | 250 nM | 2500 nM
DERL-7 (IL-2 2.5 ng/mL) [14] | 3.06 | 5 | -0.47 | -3.32 | 34.5
IMC-1 (IL-2 20 ng/mL) [2] | -5.61 | -2.47 | -3.07 | -7.52 | 8.46
KAI3 (IL-2 2.5 ng/mL) [9] | -6.1 | 1.01 | 2.43 | -4.3 | 31.2
KHYG-1 (IL-2 2.5 ng/mL) [8] | -2.85 | -0.1 | 2.78 | 71.5 | 30.8
NK-92 (IL-2 2.5 ng/mL) [3] | -8.16 | -11.7 | -14.1 | -7.91 | -1.09
NK-YS (IL-2 2.5 ng/mL) [11] | -4.15 | -0.92 | 0.04 | -2.02 | 0.94
NKL (IL-2 2.5 ng/mL) [6] | -14.1 | -19.1 | -20.9 | -29.2 | -29.9
SNK-6 (IL-2 2.5 ng/mL) [13] | -5.34 | 1.84 | -12.1 | 0.17 | 0
YT (IL-2 2.5 ng/mL) [5] | -0.07 | -0.32 | 0.19 | 3.06 | 16.2
[4] | -9.2 | -8.52 | -4.83 | -5.01 | -0.02
[7] | -9.64 | -5.28 | -9.79 | -4.67 | -5.57
[10] | -10.3 | -11.7 | 7.48 | 10 | 45
[12] | -7.46 | -6.18 | -4.85 | -3.22 | 3.89
[15] | -3.8 | -9.82 | -8.95 | -1.61 | 6.4

c1ccc(Cn2c(-c3ccc(OC[C@H](C4CCNCC4)n4c(-c5ccccc5)nc5ccccc54)cc3)nc3ccccc32)cc1 [deltarasin] (max concentration tested 10000 nM)
Details | drug sensitivity score
DERL-7 (IL-2 2.5 ng/mL) [28] | 8.12
IMC-1 (IL-2 20 ng/mL) [16] | 5
KAI3 (IL-2 2.5 ng/mL) [23] | 8.58
KHYG-1 (IL-2 2.5 ng/mL) [22] | 6.1
NK-92 (IL-2 2.5 ng/mL) [17] | 8.37
NK-YS (IL-2 2.5 ng/mL) [25] | 6.93
NKL (IL-2 2.5 ng/mL) [20] | 7.72
SNK-6 (IL-2 2.5 ng/mL) [27] | 5.39
YT (IL-2 2.5 ng/mL) [19] | 6.49
[1] | 5.21
[18] | 6.03
[21] | 7.32
[24] | 9.04
[26] | 6.08

percent inhibition of viability [%]
Details | 1 nM | 10 nM | 100 nM | 1000 nM | 10000 nM
DERL-7 (IL-2 2.5 ng/mL) [14] | -6.29 | 6.05 | -2.6 | 15.6 | 100
IMC-1 (IL-2 20 ng/mL) [2] | -1.41 | -1.69 | -5.88 | -8.23 | 100
KAI3 (IL-2 2.5 ng/mL) [9] | 1.58 | 6.95 | 3.87 | 19.1 | 99.1
KHYG-1 (IL-2 2.5 ng/mL) [8] | -3.81 | -4.92 | -1.42 | 4.21 | 99.4
NK-92 (IL-2 2.5 ng/mL) [3] | -6.78 | -14.8 | -7.87 | 17.8 | 98.7
NK-YS (IL-2 2.5 ng/mL) [11] | 1.38 | 0.11 | 0.9 | 9.01 | 99.1
NKL (IL-2 2.5 ng/mL) [6] | -1.26 | -0.19 | 0.54 | 13.1 | 100
SNK-6 (IL-2 2.5 ng/mL) [13] | -2.79 | 1.66 | -4.21 | -2.37 | 100
YT (IL-2 2.5 ng/mL) [5] | -7.64 | -4.86 | -5.15 | 6.64 | 99
[4] | -5.09 | -3.8 | -9.07 | 2.9 | 101
[7] | 3.52 | -1.56 | -7.68 | 10.8 | 100
[10] | -29 | -22.3 | -17.1 | 22.4 | 100
[12] | -6.29 | -12.3 | -0.84 | 3.6 | 100
[15] | -6.73 | -5.61 | -6.67 | -4.59 | 100
